According to ChEMBL document CHEMBL1201862, “PubChem BioAssay data set” (2004):
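Growth conditions: 96-well plates. Treatment: test compound, 48 hours, 5 concentrations. Analysis: linear interpolation between bracketing concentrations; unreached endpoints set to highest concentration. GI50: concentration for 50% inhibition of growth.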 Active and inactive are the calls of the source. Cut-off read from the data, not from the text of the source: active = GI50 up to about 1.1 µM and inactive = higher.

Key:
Assay in all cases: NCI-60 cell line screen, 48 h
[1] = test system: SNB-19
[2] = test system: A549
[3] = test system: SNB-78
[4] = test system: UACC-257
[5] = test system: HCT-15
[6] = test system: A498
[7] = test system: HCC 2998
[8] = test system: SNB-75
[9] = test system: RPMI-8226
[10] = test system: SK-OV-3
[11] = test system: SR
[12] = test system: HL-60
[13] = test system: SK-MEL-2
[14] = test system: EKVX
[15] = test system: DMS-114
[16] = test system: 786-0
[17] = test system: SF-539
[18] = test system: SF-295
[19] = test system: COLO 205
[20] = test system: U-251
[21] = test system: LOX IMVI
[22] = test system: NCI-H226
[23] = test system: SN12C
[24] = test system: ACHN
[25] = test system: IGROV-1
[26] = test system: UO-31
[27] = test system: SF-268
[28] = test system: OVCAR-8
[29] = test system: NCI-H23
[30] = test system: UACC-62
[31] = test system: LXFL 529
[32] = test system: OVCAR-3
[33] = test system: KM-20L2
[34] = test system: SK-MEL-5
[35] = test system: DMS-273
[36] = test system: NCI-H460
[37] = test system: HT-29
[38] = test system: HOP-62
[39] = test system: SK-MEL-28
[40] = test system: CCRF-CEM
[41] = test system: M14
[42] = test system: HOP-18
[43] = test system: HOP-92
[44] = test system: OVCAR-4
[45] = test system: K562
[46] = test system: TK-10
[47] = test system: M19-MEL
[48] = test system: XF498
[49] = test system: DLD-1
[50] = test system: NCI-H522
[51] = test system: KM12
[52] = test system: CAKI-1
[53] = test system: OVCAR-5
[54] = test system: Malme-3M
[55] = test system: MOLT-4
[56] = test system: RXF 393
[57] = test system: HCT-116
[58] = test system: SW-620
[59] = test system: RXF 631

COc1ccc(NC(=O)C/C(C)=N\N=C(N)N)c([N+](=O)[O-])c1
GI50 [1]: > 100 µM (inactive) | GI50 [2]: > 100 µM (inactive) | GI50 [3]: > 100 µM (inactive) | GI50 [4]: > 100 µM (inactive) | GI50 [5]: > 100 µM | GI50 [6]: > 100 µM (inactive) | GI50 [7]: > 100 µM (inactive) | GI50 [8]: > 100 µM (inactive) | GI50 [9]: > 100 µM (inactive) | GI50 [10]: > 100 µM (inactive) | GI50 [11]: 23.3 µM (inactive) | GI50 [12]: 88.5 µM (inactive) | GI50 [13]: > 100 µM (inactive) | GI50 [14]: > 100 µM (inactive) | GI50 [15]: > 100 µM (inactive) | GI50 [16]: > 100 µM (inactive) | GI50 [17]: > 100 µM (inactive) | GI50 [18]: > 100 µM (inactive) | GI50 [19]: > 100 µM (inactive) | GI50 [20]: > 100 µM (inactive) | GI50 [21]: 33.9 µM (inactive) | GI50 [22]: > 100 µM (inactive) | GI50 [23]: > 100 µM (inactive) | GI50 [24]: > 100 µM (inactive) | GI50 [25]: > 100 µM (inactive) | GI50 [26]: > 100 µM (inactive) | GI50 [27]: > 100 µM (inactive) | GI50 [28]: > 100 µM (inactive) | GI50 [29]: > 100 µM (inactive) | GI50 [30]: > 100 µM (inactive) | GI50 [31]: > 100 µM (inactive) | GI50 [32]: > 100 µM (inactive) | GI50 [33]: > 100 µM (inactive) | GI50 [34]: > 100 µM (inactive) | GI50 [35]: > 100 µM (inactive) | GI50 [36]: > 100 µM (inactive) | GI50 [37]: > 100 µM (inactive) | GI50 [38]: > 100 µM (inactive) | GI50 [39]: > 100 µM (inactive) | GI50 [40]: > 100 µM (inactive) | GI50 [41]: > 100 µM (inactive) | GI50 [42]: > 100 µM (inactive) | GI50 [43]: > 100 µM (inactive) | GI50 [44]: > 100 µM (inactive) | GI50 [45]: > 100 µM (inactive) | GI50 [46]: > 100 µM (inactive) | GI50 [47]: > 100 µM (inactive) | GI50 [48]: > 100 µM (inactive) | GI50 [49]: 34.5 µM (inactive) | GI50 [50]: > 100 µM (inactive) | GI50 [51]: > 100 µM (inactive) | GI50 [52]: > 100 µM (inactive) | GI50 [53]: > 100 µM (inactive) | GI50 [54]: > 100 µM (inactive) | GI50 [55]: > 100 µM (inactive) | GI50 [56]: > 100 µM (inactive) | GI50 [57]: > 100 µM (inactive)

COc1cccc(/C=C2\CCC(C)(CN(C)C)C2=O)c1 (stereo not given)
GI50 [1]: 34.4 µM (inactive) | GI50 [2]: > 100 µM (inactive) | GI50 [3]: > 100 µM (inactive) | GI50 [4]: > 100 µM (inactive) | GI50 [5]: 35.6 µM | GI50 [6]: > 100 µM (inactive) | GI50 [7]: > 100 µM (inactive) | GI50 [8]: > 100 µM (inactive) | GI50 [9]: 28.4 µM (inactive) | GI50 [11]: 74.3 µM (inactive) | GI50 [13]: > 100 µM (inactive) | GI50 [14]: 46.5 µM (inactive) | GI50 [15]: 69.3 µM (inactive) | GI50 [16]: > 100 µM (inactive) | GI50 [17]: > 100 µM (inactive) | GI50 [18]: > 100 µM (inactive) | GI50 [19]: 60.1 µM (inactive) | GI50 [20]: > 100 µM (inactive) | GI50 [21]: > 100 µM (inactive) | GI50 [58]: 57 µM (inactive) | GI50 [22]: > 100 µM (inactive) | GI50 [23]: > 100 µM (inactive) | GI50 [24]: 98.9 µM (inactive) | GI50 [25]: > 100 µM (inactive) | GI50 [26]: 81.5 µM (inactive) | GI50 [27]: > 100 µM (inactive) | GI50 [28]: > 100 µM (inactive) | GI50 [29]: > 100 µM (inactive) | GI50 [30]: > 100 µM (inactive) | GI50 [32]: > 100 µM (inactive) | GI50 [33]: 23 µM (inactive) | GI50 [34]: 69 µM (inactive) | GI50 [35]: 70.5 µM (inactive) | GI50 [36]: > 100 µM (inactive) | GI50 [37]: 53.3 µM (inactive) | GI50 [38]: > 100 µM (inactive) | GI50 [39]: > 100 µM (inactive) | GI50 [41]: > 100 µM (inactive) | GI50 [42]: > 100 µM (inactive) | GI50 [43]: > 100 µM (inactive) | GI50 [44]: 98.4 µM (inactive) | GI50 [45]: 43.7 µM (inactive) | GI50 [46]: > 100 µM (inactive) | GI50 [47]: 98.2 µM (inactive) | GI50 [48]: > 100 µM (inactive) | GI50 [49]: 62.4 µM (inactive) | GI50 [50]: 30.7 µM (inactive) | GI50 [51]: 92.7 µM (inactive) | GI50 [52]: 29.4 µM (inactive) | GI50 [53]: > 100 µM (inactive) | GI50 [54]: > 100 µM (inactive) | GI50 [55]: 48.6 µM (inactive) | GI50 [56]: > 100 µM (inactive) | GI50 [57]: 58.2 µM (inactive)

CCCC(=O)OCC1OC2OC(C)(C)OC2C2OC(C)(C)OC12 (stereo not given)
GI50 [1]: > 100 µM (inactive) | GI50 [2]: > 100 µM (inactive) | GI50 [3]: > 100 µM (inactive) | GI50 [4]: > 100 µM (inactive) | GI50 [59]: > 100 µM (inactive) | GI50 [6]: > 100 µM (inactive) | GI50 [10]: > 100 µM (inactive) | GI50 [11]: > 100 µM (inactive) | GI50 [12]: > 100 µM (inactive) | GI50 [14]: > 100 µM (inactive) | GI50 [18]: > 100 µM (inactive) | GI50 [20]: > 100 µM (inactive) | GI50 [22]: 19 µM (inactive) | GI50 [24]: > 100 µM (inactive) | GI50 [25]: > 100 µM (inactive) | GI50 [26]: > 100 µM (inactive) | GI50 [28]: > 100 µM (inactive) | GI50 [29]: > 100 µM (inactive) | GI50 [35]: > 100 µM (inactive) | GI50 [36]: > 100 µM (inactive) | GI50 [37]: > 100 µM (inactive) | GI50 [38]: > 100 µM (inactive) | GI50 [39]: > 100 µM (inactive) | GI50 [40]: > 100 µM (inactive) | GI50 [41]: > 100 µM (inactive) | GI50 [43]: > 100 µM (inactive) | GI50 [46]: 23.6 µM (inactive) | GI50 [47]: > 100 µM (inactive) | GI50 [50]: > 100 µM (inactive) | GI50 [51]: > 100 µM (inactive) | GI50 [53]: > 100 µM (inactive) | GI50 [55]: > 100 µM (inactive) | GI50 [56]: > 100 µM (inactive) | GI50 [57]: > 100 µM (inactive)
